This is an account of results in patent US20140038205A1, “METHODS AND COMPOSITIONS RELATING TO COAGULATION ASSAYS” (Precision BioLogic Inc., priority 2011, published 2014).

The conditions of assay [1]: relative to heparin; cited from earlier work.
Assay [2] concerns the target T1, PF4 (Homo sapiens, UniProt P02776).
T1 sequence (P02776 32-101): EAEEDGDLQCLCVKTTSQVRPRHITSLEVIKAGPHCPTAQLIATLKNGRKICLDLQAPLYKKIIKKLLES
To be noted: rank: heparin>heparan sulfate>dermatan sulfate>chondroitin-6-sulfate>chondroitin-4-sulfate; cited from earlier work.

Assay [3] relates to non-heparinized plasma. The assay is described as follows: aPTT assay of non-heparinized plasma. Type of assay: biochemical. To be noted: FIG. 2 and FIG. 3. The source says: (§1) In the aPTT (also referred to as “partial thromboplastin time” or “PTT”) assay, the sample is then mixed with a phospholipid, an activator such as silica, celite, kaolin or ellagic acid, and calcium. The contact activator is used to stimulate production of Factor XIIa. The phospholipids form complexes that activate Factor X and prothrombin. Calcium is used to reverse the anticoagulant effects of the oxalate or citrate. The mixture is then allowed to form a thrombus (clot) and the time to do so is measured. An abnormal or prolonged aPTT time will vary depending on the population and local normal ranges should be known. However, as a general guideline, values over 39 seconds may be considered abnormal and prolonged according to the invention, and such samples may be candidates for further analysis using the methods of the invention.
The PF4-based reagent may be used for the in vitro neutralization of heparin in samples as assessed by the aPTT assay. To ensure an accurate aPTT result the reagent must act specifically to reverse only anticoagulant activity associated with heparin, and otherwise have no effect on the plasma clotting time. […] This phenomenon might be due to PF4-induced stimulation of the thrombin-mediated cleavage of protein C to generate the potent anticoagulant activated protein C (APC). APC acts to inactivate coagulation Factors Va and VIIIa by proteolysis. […]

For assay [4], the system named is unfractionated heparin (UFH). The assay is described as follows: aPTT assay, neutralization of heparin in heparinized plasma. Type of assay: biochemical. To be noted: plasma containing up to 2 U/mL of UFH; FIG. 1 and FIG. 4.
Excerpt: PF4 tetramers form a cylindrical structure displaying an equatorial ring of positively charged amino acids around which the polyanionic heparin molecules wrap and bind with exceptionally high affinity. The formation of a PF4-heparin complex strongly impairs the capacity of heparin to bind AT and stimulate its anticoagulant activity.
as §1
The PF4-based reagent may be used for the in vitro neutralization of heparin in samples as assessed by the aPTT assay. […]

In the case of chondroitin-4-sulfate, in assay [1], the anti-coagulant potency result is given as “much lower than that of heparin”. For the same substance, the “relative binding affinity for PF4” value in assay [2] is listed as “low relative affinity for PF4”.
For the substance platelet factor 4 [PF4], in assay [3], the “effect on the aPTT of non-heparinized plasma” value is “gradual prolongation of the aPTT”. The “neutralization of heparin anticoagulant activity (aPTT)” value in assay [4] is recorded as “fully corrected to baseline”.
